In patent publication US8415469B2, “Compounds and methods for kinase modulation, and indications therefor” (Plexxikon Inc., priority 2005, dated 2013):
pIC50: −log10 of the molar value.

Key:
Assay type in all cases: biochemical
FGFR1 = target: T1, FGFR1 (Homo sapiens, UniProt P11362, C488A/C584S); assay: AlphaScreen kinase assay, FGFR1; conditions: read-out: IC50, activity toward kinase FGFR
T1 construct: P1351.pET N6 BI-PTP FGFR A458-E765-X C488A, C584S; made in house; host or cells: E. coli (PTP1B co-expressed)
T1 sequence (P11362 458-765 C488A/C584S): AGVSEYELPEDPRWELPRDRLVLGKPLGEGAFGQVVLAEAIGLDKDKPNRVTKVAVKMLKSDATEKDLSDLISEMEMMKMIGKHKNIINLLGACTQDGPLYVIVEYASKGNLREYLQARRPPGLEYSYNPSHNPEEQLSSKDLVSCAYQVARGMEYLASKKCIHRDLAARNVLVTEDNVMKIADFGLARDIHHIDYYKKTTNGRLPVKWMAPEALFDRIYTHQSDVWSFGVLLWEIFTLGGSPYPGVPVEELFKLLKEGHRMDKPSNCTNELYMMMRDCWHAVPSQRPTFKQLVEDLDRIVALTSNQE

Kit = target: T2, Kit (Homo sapiens, UniProt P10721); assay: AlphaScreen kinase assay, Kit; conditions: read-out: IC50, activity toward kinase Kit
T2 construct: P1332.N6 BI PTP KIT M552-K948-X COD; His6 (N); made in house; host or cells: E. coli (PTP1B co-expressed)
T2 sequence (P10721 with tags, fused parts or gaps): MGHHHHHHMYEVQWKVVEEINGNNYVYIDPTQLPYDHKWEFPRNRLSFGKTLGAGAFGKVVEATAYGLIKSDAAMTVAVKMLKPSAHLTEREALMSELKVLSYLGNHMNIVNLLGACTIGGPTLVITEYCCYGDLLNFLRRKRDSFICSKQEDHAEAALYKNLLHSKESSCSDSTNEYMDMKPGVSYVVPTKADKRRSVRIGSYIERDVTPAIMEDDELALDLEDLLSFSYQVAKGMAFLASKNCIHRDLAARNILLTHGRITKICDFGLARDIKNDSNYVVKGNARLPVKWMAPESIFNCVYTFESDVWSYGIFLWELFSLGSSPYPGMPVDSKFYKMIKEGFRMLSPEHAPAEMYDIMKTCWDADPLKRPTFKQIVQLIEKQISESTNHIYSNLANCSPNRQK

Btk = target: T3, Btk (Homo sapiens, UniProt Q06187); assay: Z'-Lyte FRET kinase assay (Invitrogen), Btk; conditions: read-out: IC50, activity toward kinase Btk
T3 construct: purchased Invitrogen (assay run by Invitrogen)
T3 sequence (Q06187 whole entry): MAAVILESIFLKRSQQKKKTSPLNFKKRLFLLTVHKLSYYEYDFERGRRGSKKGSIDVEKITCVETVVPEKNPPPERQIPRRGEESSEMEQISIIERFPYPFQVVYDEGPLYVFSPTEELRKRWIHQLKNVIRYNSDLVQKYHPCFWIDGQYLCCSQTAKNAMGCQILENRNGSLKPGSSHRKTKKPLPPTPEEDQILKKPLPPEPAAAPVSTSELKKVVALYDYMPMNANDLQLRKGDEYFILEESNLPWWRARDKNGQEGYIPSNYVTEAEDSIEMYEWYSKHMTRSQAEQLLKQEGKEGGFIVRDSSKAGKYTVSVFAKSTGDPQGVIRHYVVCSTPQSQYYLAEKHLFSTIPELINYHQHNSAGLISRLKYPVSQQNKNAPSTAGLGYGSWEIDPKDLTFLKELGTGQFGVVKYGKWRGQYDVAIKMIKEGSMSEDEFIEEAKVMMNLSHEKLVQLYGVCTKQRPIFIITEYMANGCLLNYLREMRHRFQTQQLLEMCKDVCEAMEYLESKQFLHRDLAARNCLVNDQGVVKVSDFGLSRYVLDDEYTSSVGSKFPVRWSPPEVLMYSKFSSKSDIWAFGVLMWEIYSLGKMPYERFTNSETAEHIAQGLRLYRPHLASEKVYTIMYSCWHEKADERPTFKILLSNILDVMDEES

Stk6 = target: T4, Stk6 (Homo sapiens, UniProt O14965); assay: Z'-Lyte FRET kinase assay (Invitrogen), Stk6; conditions: read-out: IC50, activity toward kinase Stk6
T4 construct: purchased Invitrogen (Carlsbad, Calif.), screening service
T4 sequence (O14965 1-403): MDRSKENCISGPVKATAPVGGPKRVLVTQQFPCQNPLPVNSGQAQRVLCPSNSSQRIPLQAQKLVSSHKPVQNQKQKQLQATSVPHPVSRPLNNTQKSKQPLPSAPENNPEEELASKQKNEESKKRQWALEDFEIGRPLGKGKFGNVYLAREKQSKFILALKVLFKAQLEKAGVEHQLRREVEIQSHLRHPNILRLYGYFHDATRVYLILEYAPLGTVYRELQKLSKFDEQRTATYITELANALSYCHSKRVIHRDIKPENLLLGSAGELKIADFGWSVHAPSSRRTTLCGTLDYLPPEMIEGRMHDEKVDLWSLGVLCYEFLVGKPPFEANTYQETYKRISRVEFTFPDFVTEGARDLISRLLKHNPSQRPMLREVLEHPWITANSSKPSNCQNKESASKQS

Fak = target: T5, Fak (Homo sapiens, UniProt Q05397); assay: AlphaScreen kinase assay, Fak; conditions: read-out: IC50, activity toward kinase Fak
T5 construct: P1358.pFastBacHtb FAK S411-Q686-X; His6 with pFastBacHTb leader (TEV site) (N); made in house; host or cells: Sf9 (baculovirus)
T5 sequence (Q05397 411-686): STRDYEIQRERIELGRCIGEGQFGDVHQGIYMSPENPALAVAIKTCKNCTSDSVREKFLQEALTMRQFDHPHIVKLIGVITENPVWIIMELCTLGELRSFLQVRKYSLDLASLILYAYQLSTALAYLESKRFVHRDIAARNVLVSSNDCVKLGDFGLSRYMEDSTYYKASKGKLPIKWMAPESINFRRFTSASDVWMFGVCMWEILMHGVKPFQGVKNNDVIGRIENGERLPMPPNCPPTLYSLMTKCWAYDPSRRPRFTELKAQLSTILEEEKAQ

Ret = target: T6, Ret (Homo sapiens, UniProt P07949); assay: AlphaScreen kinase assay, Ret; conditions: read-out: IC50, activity toward kinase Ret
T6 construct: P1378.pET-SF BI-PTP RET H661-R1012 HIS; made in house
T6 sequence (P07949 with tags, fused parts or gaps): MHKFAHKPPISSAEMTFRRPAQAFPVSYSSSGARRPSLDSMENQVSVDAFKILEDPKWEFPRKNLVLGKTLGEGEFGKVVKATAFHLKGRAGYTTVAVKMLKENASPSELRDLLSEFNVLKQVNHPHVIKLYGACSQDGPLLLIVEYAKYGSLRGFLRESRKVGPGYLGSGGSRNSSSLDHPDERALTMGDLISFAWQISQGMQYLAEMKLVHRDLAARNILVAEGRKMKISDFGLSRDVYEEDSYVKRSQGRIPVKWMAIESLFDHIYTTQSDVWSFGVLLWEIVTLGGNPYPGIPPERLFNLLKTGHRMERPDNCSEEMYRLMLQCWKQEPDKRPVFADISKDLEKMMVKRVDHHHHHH

Kdr = target: T7, Kdr (Homo sapiens, UniProt P35968); assay: Z'-Lyte FRET kinase assay (Invitrogen), Kdr; conditions: read-out: IC50, activity toward kinase Kdr
T7 construct: purchased Invitrogen (assay run by Invitrogen)

Fms = target: T8, Fms (Homo sapiens, UniProt P07333); assay: AlphaScreen kinase assay, Fms; conditions: read-out: IC50, activity toward kinase Fms
T8 construct: purchased Upstate Biotechnology
T8 sequence (P07333 20-972): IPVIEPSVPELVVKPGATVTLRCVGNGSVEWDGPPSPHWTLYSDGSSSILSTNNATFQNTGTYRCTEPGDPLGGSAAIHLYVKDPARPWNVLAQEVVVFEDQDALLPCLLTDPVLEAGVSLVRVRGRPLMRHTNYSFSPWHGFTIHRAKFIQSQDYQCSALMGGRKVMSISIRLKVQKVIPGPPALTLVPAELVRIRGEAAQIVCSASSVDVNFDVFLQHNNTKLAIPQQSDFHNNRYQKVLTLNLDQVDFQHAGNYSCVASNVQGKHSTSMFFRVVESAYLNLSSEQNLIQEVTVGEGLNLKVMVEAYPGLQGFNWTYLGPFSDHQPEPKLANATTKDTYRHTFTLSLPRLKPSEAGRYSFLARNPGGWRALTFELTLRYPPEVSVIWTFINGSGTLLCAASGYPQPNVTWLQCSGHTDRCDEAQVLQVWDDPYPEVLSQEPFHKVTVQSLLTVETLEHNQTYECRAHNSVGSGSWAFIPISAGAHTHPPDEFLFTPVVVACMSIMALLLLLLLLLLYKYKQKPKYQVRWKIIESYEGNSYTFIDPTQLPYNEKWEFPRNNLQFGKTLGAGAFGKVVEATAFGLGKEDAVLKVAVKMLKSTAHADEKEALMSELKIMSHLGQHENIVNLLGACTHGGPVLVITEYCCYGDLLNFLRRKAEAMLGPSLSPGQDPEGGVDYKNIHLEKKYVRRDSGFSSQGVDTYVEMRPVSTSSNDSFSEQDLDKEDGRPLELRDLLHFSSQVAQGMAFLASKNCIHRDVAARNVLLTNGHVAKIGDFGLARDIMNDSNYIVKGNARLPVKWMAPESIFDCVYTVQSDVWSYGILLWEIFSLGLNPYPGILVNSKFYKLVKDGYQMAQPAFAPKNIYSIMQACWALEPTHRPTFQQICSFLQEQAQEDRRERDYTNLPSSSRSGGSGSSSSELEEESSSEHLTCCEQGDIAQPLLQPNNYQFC

B-Raf = target: T9, B-Raf (Homo sapiens, UniProt P15056); assay: AlphaScreen kinase assay, B-Raf; conditions: read-out: IC50, activity toward kinase B-Raf
T9 construct: purchased Upstate Biotechnology
T9 sequence (P15056 whole entry): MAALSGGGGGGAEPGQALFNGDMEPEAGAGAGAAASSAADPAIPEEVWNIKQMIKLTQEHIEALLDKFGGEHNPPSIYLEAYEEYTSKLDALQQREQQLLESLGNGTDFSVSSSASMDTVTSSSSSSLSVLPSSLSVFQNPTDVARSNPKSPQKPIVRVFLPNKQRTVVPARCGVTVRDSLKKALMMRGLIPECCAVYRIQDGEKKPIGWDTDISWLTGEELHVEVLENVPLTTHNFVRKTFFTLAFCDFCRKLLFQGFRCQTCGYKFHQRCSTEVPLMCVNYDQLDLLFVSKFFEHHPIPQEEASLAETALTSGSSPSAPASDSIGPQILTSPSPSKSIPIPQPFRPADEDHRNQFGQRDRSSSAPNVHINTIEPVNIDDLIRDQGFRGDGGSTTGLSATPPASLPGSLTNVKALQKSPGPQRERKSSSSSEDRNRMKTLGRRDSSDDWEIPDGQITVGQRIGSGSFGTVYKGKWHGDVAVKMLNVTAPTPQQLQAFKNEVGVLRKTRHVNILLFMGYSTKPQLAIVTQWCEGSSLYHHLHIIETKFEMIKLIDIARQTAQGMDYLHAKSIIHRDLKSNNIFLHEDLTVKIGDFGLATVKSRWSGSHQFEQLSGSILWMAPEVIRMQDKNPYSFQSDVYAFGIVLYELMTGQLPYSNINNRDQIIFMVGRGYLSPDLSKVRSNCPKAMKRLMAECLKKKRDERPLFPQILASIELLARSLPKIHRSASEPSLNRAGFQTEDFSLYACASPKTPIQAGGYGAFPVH

B-Raf V600E = target: T10, B-Raf V600E (Homo sapiens, UniProt P15056, V600E); assay: AlphaScreen kinase assay, B-Raf V600E; conditions: read-out: IC50, activity toward kinase B-Raf V600E
T10 construct: P4254. pFastBacBD-CDC37 BRAF D437-K722-X, V600E; His6 with pFastBac HT leader (TEV site) (N); made in house; host or cells: Sf9 (baculovirus; chaperone CDC37 co-expressed)
T10 sequence (P15056 with tags, fused parts or gaps V600E): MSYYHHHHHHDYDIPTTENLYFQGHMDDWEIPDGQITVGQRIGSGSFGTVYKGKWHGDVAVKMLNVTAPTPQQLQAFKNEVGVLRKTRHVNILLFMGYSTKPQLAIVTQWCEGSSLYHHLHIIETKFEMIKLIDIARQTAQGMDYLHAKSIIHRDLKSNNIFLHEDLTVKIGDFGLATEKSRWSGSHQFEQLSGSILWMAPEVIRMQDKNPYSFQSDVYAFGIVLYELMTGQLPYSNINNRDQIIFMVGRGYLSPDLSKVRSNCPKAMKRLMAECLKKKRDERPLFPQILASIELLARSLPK

Jnk3 = target: T11, Jnk3 (Homo sapiens, UniProt P53779); assay: AlphaScreen kinase assay, Jnk3; conditions: read-out: IC50, activity toward kinase Jnk3
T11 construct: purchased Upstate Biotechnology

Jnk1 = target: T12, Jnk1 (Homo sapiens, UniProt P45983); assay: AlphaScreen kinase assay, Jnk1; conditions: read-out: IC50, activity toward kinase Jnk1
T12 construct: purchased Upstate Biotechnology
T12 sequence (P45983 whole entry): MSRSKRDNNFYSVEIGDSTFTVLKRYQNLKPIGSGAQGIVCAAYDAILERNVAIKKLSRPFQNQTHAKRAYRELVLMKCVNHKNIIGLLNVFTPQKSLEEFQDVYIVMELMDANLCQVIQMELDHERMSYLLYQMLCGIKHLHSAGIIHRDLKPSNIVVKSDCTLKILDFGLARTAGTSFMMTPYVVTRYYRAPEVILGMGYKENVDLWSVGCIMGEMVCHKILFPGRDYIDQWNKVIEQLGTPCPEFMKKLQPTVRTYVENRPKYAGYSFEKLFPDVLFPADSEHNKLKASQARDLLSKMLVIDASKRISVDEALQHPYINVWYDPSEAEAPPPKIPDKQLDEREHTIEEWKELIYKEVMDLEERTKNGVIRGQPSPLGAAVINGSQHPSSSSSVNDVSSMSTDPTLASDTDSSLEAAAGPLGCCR

c-Raf-1 = target: T13, c-Raf-1 (Homo sapiens, UniProt P04049); assay: AlphaScreen kinase assay, c-Raf-1; conditions: read-out: IC50, activity toward kinase c-Raf-1
T13 construct: purchased Upstate Biotechnology

Src = target: T14, Src (Homo sapiens, UniProt P12931); assay: AlphaScreen kinase assay, Src; conditions: read-out: IC50, activity toward kinase Src
T14 construct: P1144. pET-N6 BI-PTP SRC V86-L536-X; made in house
T14 sequence (P12931 with tags, fused parts or gaps): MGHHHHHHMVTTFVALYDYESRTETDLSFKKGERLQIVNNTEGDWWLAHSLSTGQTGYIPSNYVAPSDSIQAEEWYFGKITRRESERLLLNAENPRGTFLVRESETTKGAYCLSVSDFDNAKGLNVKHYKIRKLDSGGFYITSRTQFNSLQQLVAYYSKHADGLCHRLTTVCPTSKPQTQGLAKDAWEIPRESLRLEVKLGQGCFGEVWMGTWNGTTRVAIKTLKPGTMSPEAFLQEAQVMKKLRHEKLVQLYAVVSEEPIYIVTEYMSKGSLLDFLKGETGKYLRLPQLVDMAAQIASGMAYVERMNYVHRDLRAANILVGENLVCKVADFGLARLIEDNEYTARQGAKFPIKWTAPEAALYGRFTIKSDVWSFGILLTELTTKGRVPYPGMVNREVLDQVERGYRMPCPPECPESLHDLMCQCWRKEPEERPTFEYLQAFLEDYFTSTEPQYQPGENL

Flt1 = target: T15, Flt1 (Homo sapiens, UniProt P17948); assay: AlphaScreen kinase assay, Flt1; conditions: read-out: IC50, activity toward kinase Flt1
T15 construct: P1826.pETN6 BI-PTP FLT1 M799-D1165-X WT; His6 (N); made in house; host or cells: E. coli (PTP1B co-expressed)
T15 sequence (P17948 with tags, fused parts or gaps): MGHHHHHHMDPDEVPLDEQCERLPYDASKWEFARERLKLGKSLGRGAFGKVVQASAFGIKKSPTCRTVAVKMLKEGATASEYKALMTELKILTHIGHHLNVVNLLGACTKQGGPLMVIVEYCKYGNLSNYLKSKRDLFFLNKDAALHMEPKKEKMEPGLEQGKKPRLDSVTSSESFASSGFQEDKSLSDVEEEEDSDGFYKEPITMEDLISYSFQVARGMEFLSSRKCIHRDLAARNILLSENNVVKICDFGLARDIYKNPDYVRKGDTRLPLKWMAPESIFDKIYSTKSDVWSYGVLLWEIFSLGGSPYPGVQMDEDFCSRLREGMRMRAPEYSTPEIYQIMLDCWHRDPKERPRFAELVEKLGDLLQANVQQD

Row | Compound | pIC50 (FGFR1) | pIC50 (Kit) | pIC50 (Btk) | pIC50 (Stk6) | pIC50 (Fak) | pIC50 (Ret) | pIC50 (Kdr) | pIC50 (Fms) | pIC50 (B-Raf) | pIC50 (B-Raf V600E) | pIC50 (Jnk3) | pIC50 (Jnk1) | pIC50 (c-Raf-1) | pIC50 (Src) | pIC50 (Flt1)
1 | CC(=O)Nc1cccc(-c2ccnc3[nH]cc(C(=O)c4cc(F)ccc4F)c23)c1 [Compound P-0280] |  |  | ≥ 5.00 |  |  | ≥ 5.00 |  |  |  |  |  |  |  |  | 
2 | Cc1ccc(F)cc1C(=O)c1c[nH]c2ncc(-c3ccc(Cl)cc3)cc12 [Compound P-0304] | ≥ 5.00 | ≥ 5.00 | ≥ 5.00 |  |  | ≥ 5.00 |  |  |  |  |  |  |  |  | 
3 | CC(=O)Nc1cccc(-c2ccnc3[nH]cc(C(=O)c4ccccc4C)c23)c1 [Compound P-0314] |  |  | ≥ 5.00 |  |  | ≥ 5.00 |  |  |  |  |  |  |  |  | 
4 | COc1ccc(F)c(C(=O)c2c[nH]c3ncc(-c4ccccc4)cc23)c1 [Compound P-0351] | ≥ 5.00 |  | ≥ 5.00 |  |  | ≥ 5.00 |  | ≥ 5.00 | ≥ 5.00 | ≥ 5.00 |  |  |  |  | 
5 | O=C(c1c(F)ccc(NCc2ccccc2)c1F)c1c[nH]c2ncc(-c3cccnc3)cc12 [Compound P-0807, (3-Benzylamino-2,6-difluoro-phenyl)-(5-pyridin-3-yl-1H-pyrrolo[2,3-b]pyridin-3-yl)-methanone] | ≥ 5.00 |  | ≥ 5.00 |  |  | ≥ 5.00 |  | ≥ 5.00 | ≥ 5.00 | ≥ 5.00 | ≥ 5.00 | ≥ 5.00 | ≥ 5.00 | ≥ 5.00 | 
6 | O=C(c1c(F)ccc(NS(=O)(=O)c2cccs2)c1F)c1c[nH]c2ncc(Cl)cc12 [Compound P-1267, Thiophene-2-sulfonic acid [3-(5-chloro-1H-pyrrolo[2,3-b]pyridine-3-carbonyl)-2,4-difluoro-phenyl]-amide] | ≥ 5.00 | ≥ 5.00 | ≥ 5.00 |  | ≥ 5.00 |  |  | ≥ 5.00 | ≥ 5.00 | ≥ 5.00 |  |  |  | ≥ 5.00 | 
7 | CCCS(=O)(=O)Nc1ccc(F)c(C(=O)c2c[nH]c3ncc(/C=C/C(=O)O)cc23)c1F [Compound P-1269, 3-3-[2,6-difluoro-3-(propane-1-sulfonylamino)-benzoyl]-1H-pyrrolo[2,3-b]pyridin-5-yl-acrylic acid] | ≥ 5.00 | ≥ 5.00 | ≥ 5.00 |  | ≥ 5.00 |  |  | ≥ 5.00 | ≥ 5.00 | ≥ 5.00 |  |  |  | ≥ 5.00 | ≥ 5.00
8 | COc1cccc(C(=O)c2c[nH]c3ncc(-c4cccnc4)cc23)c1F [Compound P-1343, (2-Fluoro-3-methoxy-phenyl)-(5-pyridin-3-yl-1H-pyrrolo[2,3-b]pyridin-3-yl)-methanone] | ≥ 5.00 | ≥ 5.00 | ≥ 5.00 |  |  |  |  | ≥ 5.00 | ≥ 5.00 | ≥ 5.00 |  | ≥ 5.00 |  | ≥ 5.00 | 
9 | NC(=O)c1ccc(-c2cnc3[nH]cc(Cc4ccccc4F)c3c2)cc1 [Compound P-1348] | ≥ 5.00 | ≥ 5.00 |  |  | ≥ 5.00 |  |  |  | ≥ 5.00 | ≥ 5.00 | ≥ 5.00 | ≥ 5.00 |  | ≥ 5.00 | 
10 | NC(=O)c1cccc(-c2cnc3[nH]cc(C(=O)c4ccccc4O)c3c2)c1 [Compound P-1384] | ≥ 5.00 | ≥ 5.00 |  |  | ≥ 5.00 |  |  | ≥ 5.00 | ≥ 5.00 | ≥ 5.00 | ≥ 5.00 | ≥ 5.00 |  | ≥ 5.00 | 
11 | COc1ccc(F)c(C(=O)c2c[nH]c3ncc(-c4ccncc4)cc23)c1F [Compound P-1389, (2,6-Difluoro-3-methoxy-phenyl)-(5-pyridin-4-yl-1H-pyrrolo[2,3-b]pyridin-3-yl)-methanone] | ≥ 5.00 | ≥ 5.00 | ≥ 5.00 |  | ≥ 5.00 |  |  | ≥ 5.00 | ≥ 5.00 | ≥ 5.00 |  |  | ≥ 5.00 |  | 
12 | COc1cc(OC)cc(C(=O)c2c[nH]c3ncc(-c4cccc(NC(C)=O)c4)cc23)c1 [Compound P-1420, N-{3-[3-(3,5-Dimethoxy-benzoyl)-1H-pyrrolo[2,3-b]pyridin-5-yl]-phenyl}-acetamide] | ≥ 5.00 | ≥ 5.00 | ≥ 5.00 |  |  |  |  | ≥ 5.00 | ≥ 5.00 | ≥ 5.00 |  |  |  |  | ≥ 5.00
13 | Cc1cccc(C)c1Cc1c[nH]c2ncc(-c3cccnc3)cc12 [Compound P-1481, 3-(2,6-Dimethyl-benzyl)-5-pyridin-3-yl-1H-pyrrolo[2,3-b]pyridine] | ≥ 5.00 | ≥ 5.00 | ≥ 5.00 |  | ≥ 5.00 |  |  | ≥ 5.00 | ≥ 5.00 | ≥ 5.00 |  |  |  | ≥ 5.00 | 

Next, values leading:

Row | pIC50 (FGFR1) | pIC50 (Kit) | pIC50 (Btk) | pIC50 (Stk6) | pIC50 (Fak) | pIC50 (Ret) | pIC50 (Kdr) | pIC50 (Fms) | pIC50 (B-Raf) | pIC50 (B-Raf V600E) | pIC50 (Jnk3) | pIC50 (Jnk1) | pIC50 (c-Raf-1) | pIC50 (Src) | pIC50 (Flt1) | Compound
14 | ≥ 5.00 | ≥ 5.00 | ≥ 5.00 |  |  |  |  |  |  |  |  |  |  |  |  | Cc1ccccc1C(=O)c1c[nH]c2ncc(Br)cc12 [Compound P-0217]
15 |  |  |  | ≥ 5.00 | ≥ 5.00 |  |  |  |  |  |  |  |  |  |  | O=Cc1ccsc1-c1ccnc2[nH]ccc12 [Compound P-0276]
16 | ≥ 5.00 | ≥ 5.00 | ≥ 5.00 |  |  | ≥ 5.00 | ≥ 5.00 |  |  |  |  |  |  |  |  | O=C(c1ccc(Cl)cc1)c1c[nH]c2ncc(-c3ccsc3)cc12 [Compound P-0321]
17 | ≥ 5.00 | ≥ 5.00 | ≥ 5.00 |  | ≥ 5.00 |  |  | ≥ 5.00 | ≥ 5.00 | ≥ 5.00 |  |  |  | ≥ 5.00 |  | O=C(c1c(Cl)cccc1Cl)c1c[nH]c2ncc(-c3cccnc3)cc12 [Compound P-1479]
18 | ≥ 5.00 | ≥ 5.00 | ≥ 5.00 |  | ≥ 5.00 |  |  | ≥ 5.00 | ≥ 5.00 | ≥ 5.00 |  |  |  | ≥ 5.00 |  | Cc1cccc(C)c1C(=O)c1c[nH]c2ncc(-c3cccnc3)cc12 [Compound P-1480]
